Laboratory results published in US9242984B2, “Pyrazolyl derivatives as Syk inhibitors” (Merck Sharp & Dohme Corp., priority 2012, dated 2016).
Where two headings read alike, the source gives them in different places.

Target: T1, recombinant human Syk (GST-hSyk fusion protein) (Homo sapiens, UniProt P43405)
T1 construct: purchased Carna Biosciences 08-176
Assay: Homogeneous Time-Resolved Fluorescence (HTRF) assay for the recombinant human Syk enzyme
Format: biochemical
Settings: 10-dose titration, 25 μM ATP
Method in brief: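 IC50 came from a four-parameter fit over ten doses, 10 μM to 0.508 nM, with HTRF read-out (Eu-anti-pTyr antibody, SA-APC, EDTA stop, 30 min). The enzyme, 5 pM GST-hSyk, met compound for 10 min, then phosphorylated 250 nM biotin-peptide with 25 μM ATP and 5 mM Mg for 45 min at room temperature, pH 7.5.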

[1] = IC50 class, read-out: rhSYK Activity

Compound	IC50 [1] [nM]	IC50 (read-out: rhSYK IC50) [nM]
Cc1cc(Nc2ncc(F)c(C(F)F)n2)cc(-c2cnn(CC3OC(=O)NC3C)c2)c1 (single isomer, unassigned) [Example 23.20, 5-{[4-(3-{[4-(difluoromethyl)-5-fluoropyrimidin-2-yl]amino}-5-methylphenyl)-1H-pyrazol-1-yl]methyl}-4-methyl-1,3-oxazolidin-2-one]	≤ 100	
Cc1cc(Nc2nccc(C(F)F)n2)cc(-c2cnn(CC(C)(O)C(C)(C)O)c2)c1 (stereo not shown) [Example 21.7, 1-[4-(3-{[4-(difluoromethyl)pyrimidin-2-yl]amino}-5-methylphenyl)-1H-pyrazol-1-yl]-2,3-dimethylbutane-2,3-diol]	≤ 100	
Cc1cc(Nc2nccc(C(F)(F)F)n2)cc(-c2cnn(CCCC(N)=O)c2)c1 [Example 8.9, 4-[4-(3-methyl-5-{[4-(trifluoromethyl)-pyrimidin-2-yl]amino}phenyl)-1H-pyrazol-1-yl]butanamide]	≤ 100	
Cc1cc(Nc2nccc(C(F)F)n2)cc(-c2cnn(C3CCCC(O)C3O)c2)c1 (single isomer, unassigned) [Example 10.6, 3-[4-(3-{[4-(difluoromethyl)pyrimidin-2-yl]amino}-5-methylphenyl)-1H-pyrazol-1-yl]cyclohexane-1,2-diol]	≤ 100	1.3
COCC(O)Cn1cc(-c2cc(C)cc(Nc3nccc(C(F)F)n3)c2)cn1 (stereo not shown) [Example 5.22, 1-[4-(3-{[4-(difluoromethyl)pyrimidin-2-yl]amino}-5-methylphenyl)-1H-pyrazol-1-yl]-3-methoxypropan-2-ol]	≤ 100	
Cc1cc(Nc2nccc(C(F)F)n2)cc(-c2cnn(CC(O)C(F)(F)F)c2)c1 (stereo not shown) [Example 5.24, 3-[4-(3-{[4-(difluoromethyl)pyrimidin-2-yl]amino}-5-methylphenyl)-1H-pyrazol-1-yl]-1,1,1-trifluoropropan-2-ol]	≤ 100	
Cc1cc(Nc2nccc(C)n2)cc(-c2cnn(CCC(=O)O)c2)c1 [Example 2.44, 3-(4-{3-methyl-5-[(4-methylpyrimidin-2-yl)amino]phenyl}-1H-pyrazol-1-yl)propanoic acid]	≤ 100	
4-{[4-(6-{[4-(difluoromethyl)pyridin-2-yl]amino}-4-methylpyridin-2-yl)-1H-pyrazol-1-yl]methyl}pyrrolidin-2-one [Example 1.35]	≤ 100	
Cc1cc(Nc2nccc(C(F)F)n2)cc(-c2cnn(CC(C)(O)C(F)(F)F)c2)c1 (single isomer, unassigned) [Example 24.2, (S or R)-3-(4-(3-((4-(difluoromethyl)pyrimidin-2-yl)amino)-5-methylphenyl)-1H-pyrazol-1-yl)-1,1,1-trifluoro-2-methylpropan-2-ol]	≤ 100	6.2
Cc1cc(Nc2nccc(C(F)(F)F)n2)cc(-n2cc(C(C)(O)c3ccc(C(=O)O)cc3)cn2)c1 (single isomer, unassigned) [Example 19.8, 4-{1-hydroxy-1-[1-(3-methyl-5-{[4-(trifluoromethyl)pyrimidin-2-yl]amino}phenyl)-1H-pyrazol-4-yl]ethyl}benzoic acid]	≤ 100	
NC(=O)CCn1cc(-c2cccc(Nc3nccc(C(F)(F)F)n3)c2)cn1 [Example 2.15, 3-[4-(3-{[4-(trifluoromethyl)pyrimidin-2-yl]amino}phenyl)-1H-pyrazol-1-yl]propanamide]	≤ 100	
Cc1cc(Nc2nccc(C(F)(F)F)n2)cc(-c2cnn(C(C)c3ccc(C(=O)O)cc3)c2)c1 (stereo not shown) [Example 1.48, 4-{1-[4-(3-methyl-5-{[4-(trifluoromethyl)pyrimidin-2-yl]amino}phenyl)-1H-pyrazol-1-yl]ethyl}benzoic acid]	≤ 100	
Cc1cc(Nc2nccc(C(F)(F)F)n2)cc(-c2cnn(C)c2)c1 [Example 1.3, N-[3-methyl-5-(1-methyl-1H-pyrazol-4-yl)phenyl]-4-(trifluoromethyl)-pyrimidin-2-amine]	≤ 100	
Cc1cc(Nc2nccc(C(F)F)n2)cc(-c2cnn(Cc3cnc(C)[nH]3)c2)c1 [Example 3.108, 4-(difluoromethyl)-N-(3-methyl-5-{1-[(2-methyl-1H-imidazol-5-yl)methyl]-1H-pyrazol-4-yl}phenyl)pyrimidin-2-amine]	≤ 100	
Cc1cc(Nc2nccc(C(F)(F)F)n2)cc(-c2cnn(CC3(C)CNC(=O)O3)c2)c1 (stereo not shown) [Example 3.117, 5-methyl-5-{[4-(3-methyl-5-{[4-(trifluoromethyl)pyrimidin-2-yl]amino}phenyl)-1H-pyrazol-1-yl]methyl}-1,3-oxazolidin-2-one]	≤ 100	
C[C@@](O)(CO)Cn1cc(-c2cc(F)cc(Nc3nccc(C(F)(F)F)n3)c2)cn1 [Example 2.91, (2S)-3-[4-(3-fluoro-5-{[4-(trifluoromethyl)pyrimidin-2-yl]amino}phenyl)-1H-pyrazol-1-yl]-2-methylpropane-1,2-diol]	≤ 100	
Cc1cc(Nc2nccc(C)n2)cc(-c2cnn(CC3OC(=O)NC3C(C)C)c2)c1 (single isomer, unassigned) [Example 23.16, 4-(1-methylethyl)-5-[(4-{3-methyl-5-[(4-methylpyrimidin-2-yl)amino]phenyl}-1H-pyrazol-1-yl)methyl]-1,3-oxazolidin-2-one]	≤ 100	
Cc1cc(Nc2nccc(C(F)(F)F)n2)cc(-c2cnn(C[C@H](O)C(N)=O)c2)c1 [Example 7.4, (2S)-2-hydroxy-3-[4-(3-methyl-5-{[4-(trifluorometh-yl)pyrimidin-2-yl]amino}-phenyl)-1H-pyrazol-1-yl]propanamide]	≤ 100	
Cc1cc(Nc2nccc(C(F)F)n2)cc(-c2cnn(C3CCC(C)(C)C(O)C3O)c2)c1 (stereo not shown) [Example 22.7, 6-[4-(3-{[4-(difluoromethyl)pyrimidin-2-yl]amino}-5-methylphenyl)-1H-pyrazol-1-yl]-3,3-dimethylcyclohexane-1,2-diol]	≤ 100	2.6
4-{[4-(4-methyl-6-{[4-(trifluoromethyl)-pyridin-2-yl]amino}-pyridin-2-yl)-1H-pyrazol-1-yl]methyl}-pyrrolidin-2-one [Example 1.39]	≤ 100	
Cc1cc(Nc2nccc(C(F)(F)F)n2)cc(-c2cnn(C3CCNC(=O)CC3)c2)c1 (single isomer, unassigned) [14.1 (enantiomer 2)]		10.1
COc1ccnc(Nc2cc(C)cc(-c3cnn(C[C@](C)(O)CO)c3)c2)n1 [Example 2.88, (2S)-3-(4-{3-[(4-methoxypyrimidin-2-yl)amino]-5-methylphenyl}-1H-pyrazol-1-yl)-2-methylpropane-1,2-diol]	≤ 100	
COc1ccnc(Nc2cc(C)cc(-c3cnn(CC4CNC(=O)O4)c3)c2)n1 (stereo not shown) [Example 2.17, 5-[(4-{3-[(4-methoxypyrimidin-2-yl)amino]-5-methylphenyl}-1H-pyrazol-1-yl)methyl]-1,3-oxazolidin-2-one]	≤ 100	
Cc1cc(Nc2nccc(C(F)F)n2)cc(-c2cnn(CC3OC(=O)NC3C)c2)c1 (single isomer, unassigned) [Example 23.14, 5-{[4-(3-{[4-(difluoromethyl)pyrimidin-2-yl]amino}-5-methylphenyl)-1H-pyrazol-1-yl]methyl}-4-methyl-1,3-oxazolidin-2-one]	≤ 100	
Cc1cc(Nc2nccc(OC(C)C)n2)cc(-c2cnn(C[C@H](O)C(N)=O)c2)c1 [Example 6.6, (2S)-2-hydroxy-3-[4-(3-methyl-5-{[4-(1-methyl-ethoxy)pyrimidin-2-yl]amino}-phenyl)-1H-pyrazol-1-yl]-propanamide]	≤ 100	
